# Source: patent publication US7453006B2, “Inositol derivatives for increasing chloride secretion and inhibiting inflammation” (Inologic, Inc., priority 2000, dated 2008)
# Entries after “also recorded” stand apart in the source; their conditions may differ.
# Key:
# [1] = tested on: CF Human Nasal Epithelial (CFHNE) cells; test: Cystic Fibrosis Human Nasal Epithelial Cell Assay (Isc, Ussing chambers); assay type: cell-based
# Method: CF Human Nasal Epithelial (CFHNE) Cell Isolation and Proliferation
# Nasal Polyps were surgically obtained from a CF patient at Children's Hospital (Seattle, Wash.), transported on ice in a sterile container containing a 1:1 mixture of Dulbecco's modification of minimum essential medium Eagle and Ham's F-12 nutrient medium (DMEM/F-12) (Irvine Scientific, Santa Ana, Calif.) supplemented with 100 U/mL penicillin, 0.1 mg/mL streptomycin, 10 mM HEPES, and 2 mM L-glutamine. The tissue samples were aseptically removed from the transport medium and washed (repeated 5 times) by suspending in 40 mL of Joklik's modification of minimum essential medium Eagle (JMEM) at 4° C., and centrifuging at 500 rpm. The supernatant was aspirated and discarded. The tissue was then transferred to JMEM containing 200 U/mL penicillin, 0.2 mg/mL streptomycin, 0.1 mg/mL gentamycin sulfate (Clonetics, San Diego, Calif.), and 0.1 μg/mL amphotericin-B (Clonetics), and 0.1% Protease, washed an additional two times, suspended in […] in a 10 cm tissue culture dish, and incubated at 4° C. for 24 hours. The tissue samples were then gently triturated, the connective tissue aseptically removed, and the remaining cell suspension centrifuged at 1000 rpm. The supernatant was aspirated and the pellet was resuspended in 10 mL proliferation media, consisting of Keratinocyte-Serum Free Medium (KSFM) (Gibco-BRL, Grand Island, N.Y.) containing 5 ng/ml EGF (Gibco), 50 μg/mL BPE (Gibco), 5 μg/mL insulin, 5 μg/mL transferrin, 5 μg/ml sodium selenite, 10 nM 3,3′,5-triiodo-L-thyronine, 200 nM hydrocortisone, 100 U/mL penicillin, 0.1 mg/mL streptomycin, and 2 mM L-glutamine. The cell suspension was transferred to 2.10 cm tissue culture dishes coated with 3 μg/cm^2 rat-tail collagen (Type I) (Becton-Dickinson, Bedford, Mass.), incubated at 37° C. in an humidified atmosphere of 5% CO2 and 95% air. The cells were allowed to grow for 6 days (˜70% confluence) with the media being replaced with fresh media every other day. The cells were then trypsinized using 0.025% trypsin-EDTA for 5 min. The cell suspension was collected, the trypsin deactivated with 10% Fetal Bovine Serum, and centrifuged at 1000 rpm for 5 min. The cells were then counted using an hemocytometer with a yield of 3×10^6 cells per dish. The supernatant was aspirated and the cells were resuspended in KSFM and plated at a density of 10^4 cells/cm^2.
# CFHNE Cell Ussing Chamber Preparation
# The CFHNE cells were prepared for Ussing Chamber studies using Snapwell permeable supports (0.4 μm pore size) (Corning Costar, Cambridge, Mass.) coated with 3 μg/cm^2 rat-tail collagen (type 1). Cells were plated at 9×10^3 cells/cm^2 in KSFM. After 2 days, an air-liquid interface (ALI) was initiated in DMEM/F-12 containing: 2% Fetal Clone III (Hyclone, Logan, Utah), 2.5 μg/mL insulin, 2.5 μg/mL transferrin, 2.5 μg/mL sodium selenite, 20 nM hydrocortisone, 1.5 μM epinephrine, 50 μg/mL BPE, 1 nM 3,3′,5-triiodo-L-thyronine, 3.3 nM All-trans retinoic acid, 250 nM ethanolamine, 250 nM O-phosporylethanolamine, 100 U/mL penicillin, 0.1 mg/ml streptomycin, and 2 mM L-glutamine. The CFHNE monolayers reached maximal resistance (˜200 Ω/cm^2) 5-7 days after initiation of ALI. All media/reagents, unless otherwise specified, were supplied by Sigma Chemical Co., St. Louis, Mo.
# T84 cells = test: Colonic Epithelial Cell Assay (Isc across T84 monolayers, Ussing chambers); assay type: cell-based, human; conditions: for Isc response to carbachol / Isc response to thapsigargin following carbachol: 400 μM, 30 min preincubation, T84
# Method: Cl^− secretion in colonic epithelial cells was measured as short circuit current (Isc) across T84 monolayers grown to confluence on Snap-wells (Costar) and mounted in Ussing chambers equipped with voltage clamps (Physiologic Instruments, San Diego). Data was acquired and analyzed using AAcquire and Analyze@ software (Physiologic Instruments). T84 cells (passages 18-48) were maintained as described previously in McRoberts, J. A. et al., “Cyclic AMP and Ca^2+-activated K^+ transport pathway in the apical membrane of a human colonic epithelial cell line,” J. Biol. Chem. 260:14163-14172 (1985). After […] of incubation on Snap-wells, monolayers had formed tight junctions and were preincubated with […] Bt2D-myo-Ins(3,4,5,6)P4/AM for 30-min. prior to mounting. An extracellular concentration of 200 uM corresponds to an intracellular concentration of 4 uM (Vajanaphnich, et al., “Long-term uncoupling of chloride secretion from intracellular calcium levels by Ins(3,4,5,6)P4,” Nature 371:711-714 (1994)). […]
# [2] = tested on: arachidonic acid-induced inflammation in mouse ears; test: arachidonic acid-induced inflammation in mouse ears; assay type: in vivo; conditions: for Ear Thickness: 20 nanomoles/ear topical 30 min before arachidonic acid, measured 60 min after arachidonic acid, control 56.5 ± 1.57
# Method: Arachidonic Acid (Nu-Chek, Elysian, Minn. 56028); Indomethacin (stock=12.5 mg/mL acetone). Prednisolone (Sigma Chem, P6004) 20 mM dissolved in acetone; Animals: Female Balb/c mice (B&K laboratories) and Swiss-Webster hybrid (B& K Laboratory, Kent, Wash.)
# The right ear of each mouse was used for the test compound. Unless otherwise indicated each compound was adjusted to 20 mM by dilution into DMSO or DMSO/5% Pluronic F127 as indicated and 1 or 2 microliters were applied to the test ear. Thirty minutes after each compound was applied, 4 mg arachidonic acid was applied (4 μL/ear; 2 μL/side) to both ears of each mouse. Measurements of edema were taken 60 min after the application of arachidonic acid with microcalipers (Oditest, Scientific Supply and Equipment) unless otherwise indicated. The results are shown in FIG. 15 as millimeters×10^−2 measured at the thickest point of each ear. Control measurements were performed on ears that were only treated with arachidonic acid.
# Response to prednisolone (20 μL of 20 mM/ear; 10 μl/side) added 3 hrs prior 20′ to arachidonic acid or indomethacin (5 μg/ear) added 30 min prior to test compounds was determined. The results are shown in Table A, where the anti-inflammatory/inflammatory effects of 20 nanomoles/ear of the indicated compounds were tested as described in Methods. Each plus represents a change from control (arachidonic acid alone) of 2.5 mm×10^−2. Effects were compared with those of Indomethacin (400 nmols/ear).
# Acute inflammation: Membrane permeant inositol polyphosphate analogs were administered topically and tested for inhibition of inflammatory symptoms induced by arachidonic acid on the ear of Swiss Webster mice.
# [3] = macroscopic negative effects / side effects after ip and iv injection; assay type: in vivo, mouse; conditions: several weeks after treatment
# [4] = extracellular concentration of 200 uM; cited from earlier work
# [5] = preincubation with 200 μM, CFHNE monolayers
compound,measurement,setting,value
"CCCOC1C(OP(=O)(OCOC(C)=O)OCOC(C)=O)C(OP(=O)(OCOC(C)=O)OCOC(C)=O)C(OP(=O)(OCOC(C)=O)OCOC(C)=O)C(OP(=O)(OCOC(C)=O)OCOC(C)=O)C1(CCC)OC(=O)CCC (racemic) [Compound A, rac-2-O-butyryl-2-C-propyl-1-O-propyl-myo-inositol 3,4,5,6-tetrakisphosphate-octakis(acetoxymethyl) ester]",Isc response to subsequent stimulation with ATP,"[1]; 95 μM, CFHNE",appeared to prolong the response to subsequent stimulation with ATP; also recorded: prolonged increase in Isc following ATP addition
same,"Isc, direct effect","[1]; 95 μM, CFHNE",little direct effect
same,"Isc, direct effect","[1]; 200 μM, added basolaterally, CFHNE (passage 3)",prolonged increase in Isc comparable in amplitude to that stimulated with ATP
same,Isc response to carbachol,T84 cells,did not affect
same,Isc response to thapsigargin following carbachol,T84 cells,partially reversed the inhibition of thapsigargin induced chloride secretion; also recorded: partially restores the Isc response to thapsigargin following carbachol
same,Ear Thickness,[2],52.5 ± 5.5 mm × 10^−2
"D-1-O-octyl-2-O-butyryl-myo-inositol 1,4,5,6-tetrakisphosphate-octakis-(propionoxymethyl)ester [INO-E3]",macroscopic negative effects,[3]; ip injections up to 50 μg/animal,No macroscopic negative effects
same,macroscopic negative effects,[3]; iv injections of 20 μg/animal,No macroscopic negative effects
same,effectiveness by route of application,"[2]; topically, intraperitoneally and orally","effective when applied topically, intraperitoneally and orally"
"CCCC12OC(C)(C)OC1C(OP(=O)(OCOC(C)=O)OCOC(C)=O)C(OP(=O)(OCOC(C)=O)OCOC(C)=O)C(OP(=O)(OCOC(C)=O)OCOC(C)=O)C2OP(=O)(OCOC(C)=O)OCOC(C)=O (racemic) [Compound B, rac-1,2-O-isopropylidene-2-C-propyl-myo-inositol 3,4,5,6-tetrakisphosphate-octakis(acetoxymethyl) ester]",negative component of the ATP effect on Isc,"[1]; FIG. 11 legend: preincubation at 400 μM, CFHNE, average of duplicates",reverse the negative component of the ATP effect on Isc
same,negative phase of Isc following ATP,[1]; [5],"totally reversed the negative phase, instead causing a long term increase in Isc"
same,transient increase in Isc following ATP,[1]; [5],inhibited
same,Isc response to carbachol,T84 cells,prolongs; also recorded: prolonged increase in Isc response
same,Isc response to thapsigargin following carbachol,T84 cells,overcomes the inhibitory effect of carbachol pretreatment; also recorded: prolonged increase in Isc response
same,"Isc, acute effect","T84 cells; applied acutely to the apical surface of T84 monolayers, one monolayer",triggers an increase in Isc; also recorded: large and prolonged increase in Isc
same,Ear Thickness,[2],56.1 ± 2.1 mm × 10^−2
"CCCC(=O)OC1C(OC(=O)CCC)C(OP(=O)(OCOC(C)=O)OCOC(C)=O)C(OP(=O)(OCOC(C)=O)OCOC(C)=O)C(OP(=O)(OCOC(C)=O)OCOC(C)=O)C1OP(=O)(OCOC(C)=O)OCOC(C)=O (centres unmarked) [Bt2D-myo-Ins(3,4,5,6)P4/AM]",intracellular concentration,[4],4 µM
